US20240252586A1, “ENGINEERED ANTIMICROBIAL PEPTIDES AND USAGE THEREOF” (priority 2021, published 2024)
Read-outs that look alike come from different tables or passages of the source. Where no end group is shown, it is not given here.

Key:
S. aureus NRS 384 = tested on: S. aureus NRS 384
Experimental: (§1) SEQ ID NO: 1 stocks were made at 5.12 mg/mL in water adjusted to pH of 5.0 with 1% glacial acetic acid.
(§2) The test organisms (Table 7) consisted of clinical isolates from the Micromyx (MMX) repository, a reference isolate from the American Type Culture Collection (ATCC, Manassas, VA) and the Centers for Disease Control (CDC, Atlanta GA). Upon initial receipt, the isolates were streaked under suitable conditions onto agar medium appropriate to each organism. The organisms were incubated for 18-24 hr at 35° C. in ambient atmosphere. Colonies harvested from these growth plates were resuspended in the appropriate medium containing a cryoprotectant. Aliquots of each suspension were then stored frozen at −80° C. Prior to testing, all organisms were cultured onto trypticase soy agar containing 5% sheep blood. The agar plates were incubated as described above.
(§3) The Test media used for MIC and FIC were testing were cation-adjusted Mueller-Hinton broth (CAMHB) and Roswell Park Memorial Institute (RPMI-1640), buffered with 3-(N-morpholino)propanesulfonic acid (MOPS). Each test media was supplemented with 0.002% Tween-80 (P-80) prior to testing.
(§4) MIC assay plates were prepared for broth microdilution in accordance with guidelines from the Clinical and Laboratory Standards Institute (CLSI); automated liquid handlers (Biomek 3000 and Biomek FX) and multi-channel pipettes were used to conduct serial dilutions and liquid transfers. MIC assay plates were prepared using a 96-well, deep-well microdilution plate that mimicked the layout of the daughter plates.
(§5) For the mother plate, wells across the standard 96-well microdilution plate were filled with 150 μL of sterile saline 0.002% P-80 in columns 2 through 12. […] The Biomek 300 was used to make eleven 2-fold serial dilutions horizontally across each row of the plate from columns 2 through 11. The Biomek FX was then used to transfer 5 μL of the SEQ ID NO: 1 and saline 0.002% P-80 to the daughter plates.
(§6) A standardized inoculum of each organism was prepared per CLSI methods. Suspensions were prepared to equal a 0.5 McFarland standard followed by a 1:10 dilution into test medium. The inocula were dispensed into sterile reservoirs divided by length and the Biomek 3000 was used to inoculate the plates. Daughter plates were placed on the Biomek 3000 work surface in reverse orientation so that inoculation took place from low to high drug concentration. The Biomek 3000 delivered 10 μL of the diluted suspension into each well. These inoculations yielded a final cell concentration in the daughter plates of approximately 5×10^5 CFU/mL in each well. Plates were incubated at 35° C. for 16-20 hr. The microplates were viewed from the bottom using a plate viewer and the MIC was recorded as the lowest concentration of drug that inhibited visible growth of the organism.

S. epidermidis MMX 5129 = tested on: S. epidermidis MMX 5129
Experimental: as §1, §2, §3, §4, §5, §6

E. Coli ATCC BAA-2469 = tested on: E. Coli ATCC BAA-2469
Experimental: as §1, §2, §3, §4, §5, §6

S. aureus ATCC 29213 = tested on: S. aureus ATCC 29213
Experimental: as §1, §2, §3, §4, §5, §6

P. aeruginosa ATCC 27853 = tested on: P. aeruginosa ATCC 27853
Experimental: as §1, §2, §3, §4, §5, §6

S. epidermidis MMX 8655 = tested on: S. epidermidis MMX 8655
Experimental: as §1, §2, §3, §4, §5, §6

S. epidermidis MMX 3628 = tested on: S. epidermidis MMX 3628
Experimental: as §1, §2, §3, §4, §5, §6

CoNS non-epidermidis = assay: Broth microdilution MIC, PJI isolates (Example 1); format: cell-based, coagulase-negative staphylococci; details: RPMI; N = 53
Experimental: Imipenem, levofloxacin, tigecycline, linezolid, vancomycin, oxacillin, ceftazidime, colistin, and amikacin were tested as comparators. Testing was conducted in accordance with guidelines from the Clinical and Laboratory Standards Institute (CLSI; M7 and M100). Test organisms comprised reference strains from the American Type Culture Collection, the Centers for Disease Control Antibiotic Reference Bank and clinical isolates from the Micromyx repository.

Q: What does the source list for RRWVRRVRRVWRRVVRVVRRWVRR [SEQ ID NO: 1]?
A: MIC (S. aureus NRS 384; CAMHB): 4 µg/mL; MIC (S. aureus NRS 384; RPMI): 0.5 µg/mL; MIC (S. epidermidis MMX 5129; CAMHB): 1 µg/mL; MIC (S. epidermidis MMX 5129; RPMI): 0.12 µg/mL; MIC (E. Coli ATCC BAA-2469; CAMHB): 4 µg/mL; MIC (E. Coli ATCC BAA-2469; RPMI): 0.5 µg/mL; MIC (S. aureus ATCC 29213; CAMHB): 4 µg/mL; MIC (S. aureus ATCC 29213; RPMI): 0.5 µg/mL; MIC (P. aeruginosa ATCC 27853; CAMHB): 8 µg/mL; MIC (P. aeruginosa ATCC 27853; RPMI): 2 µg/mL; MIC (S. epidermidis MMX 8655; CAMHB): 0.5 µg/mL; MIC (S. epidermidis MMX 8655; RPMI): 0.12 µg/mL; MIC (S. epidermidis MMX 8655; stated in FIG. 3 legends (time-kill)): 1 µg/mL; MIC (S. epidermidis MMX 3628; CAMHB): 0.25 µg/mL; MIC (S. epidermidis MMX 3628; RPMI): 0.12 µg/mL; MIC50 (CoNS non-epidermidis): 0.06 µg/mL; MIC90 (CoNS non-epidermidis): 0.06 µg/mL
